Measurements as given in US5383848A, “Iontophoretic administration of drugs” (Gensia, Inc., priority 1991, dated 1995).
Values joined by “and” are separate entries in the source; they are usually repeats but may differ in a detail not shown here. Identical values can stand only once.

What was measured:
elevated heart rate [1] = experiment: Additional in vivo dog experiments: dermal clearance enhancer pretreatment then arbutamine TDI (Example C); parameters: species or system labrador dogs; conditions: for CHANGE IN HEART RATE / DELAY TIME / TIME TO REACH 10% DECLINE IN HEART RATE / TIME TO REACH 20% DECLINE IN HEART RATE / TIME TO REACH 30% DECLINE IN HEART RATE / TIME TO REACH 40% DECLINE IN HEART RATE / TIME TO REACH 50% DECLINE IN HEART RATE / HALF-LIFE: single dog run, hydrochloride; for HALF-LIFE: heart rate decline
Procedure: Additional experiments were performed to study the effect of certain compositions on the offset time and dermal clearance in dogs.
In these experiments, the formulation to be tested was applied either topically or by transdermal iontophoresis (TDI) as described below.
Six labrador dogs (20 to 30 kg) were trained to lie quietly on a table. Before each experiment, three ECG electrodes (one lead) were applied on shaved areas of the back (near the front legs) to obtain the heart rate. The outer hind leg area (either right or left) was shaved prior to each experiment, with care taken not to cut or visibly damage the skin. The area was cleaned with soap and water and the skin was then […] using an alcohol swab followed by skin preparation with 3M One-Step-Prep™ tape.
Each vasodilator that was delivered by TDI used a 1.8 cm^2 electrode (Graphic Controls, Buffalo, N.Y.) containing the vasodilator in a gel at the concentrations listed in experimental methods section. In all experiments, an indifferent electrode containing a phosphate-buffered-saline gel was applied to the skin in conjunction with the electrode containing the vasodilator. Each vasodilator tested was applied for 10 minutes using a current of 0.6 mA/cm^2. During this time the heart rate was continuously recorded (at 5 second intervals) with the ESA Research System. The delivery electrodes were then removed, and any excess gel adhering to the skin was gently removed using a tissue.
Each topically applied vasodilator was applied to the skin in a volume of approximately 0.25 ml. The agent was allowed to absorb into the skin, during which time the heart rate was continuously recorded for 10 minutes using the ESA Research System.
To test if heat alone would produce sufficient vasodilation, a 60° C. hot pack was applied to the skin 10 minutes prior to drug delivery, during which time the heat rate was continuously recorded by the ESA System. Once drug delivery electrodes were applied, the heat pack was reheated and placed on top of them for the duration of the study.
The purpose of this treatment was to produce an elevated heart rate response of at least 40 beats-per-minute above baseline lasting for at least 30 minutes.
^1/ The dose (ITCA) was calculated by multiplying the applied current density (mA/cm^2) by the duration of delivery (minutes) and the drug concentration (%) and the area of the electrode (cm^2). […] The units of ITCA are mA.minutes.
The important variables for this analysis are:
1) delay between time when drug administration was stopped and start of decline in heart rate;
2) the time (minutes) to reach successive percent levels (i.e. 10, 20, 30, 40, and 50% decline) from the point of maximum change in heart rate^2.
3) the half-life (minutes) of the heart rate decline obtained from an exponential fit of the offset slope.
A combination of over-the-counter (OTC) and proprietary formulations were selected for comparison. […] Two dogs received each treatment at least one time.
The six dogs are identified in the table as BA, BB, BO, MI, PO and SA, followed by the experimental identification number. These dogs received control (no pretreatment) and five DCE pretreatment regimens.

[2] = Preclinical and clinical studies using intravenous (IV) infusion of an ESA drug; conditions: in vivo, read-out: Pharmacokinetic and pharmacodynamic half-life
Procedure: Referring to FIG. 3, dog "PO", 0.08 microgram of GP 2-121-3 per kilogram of dog body weight per minute was administered over a 7 minute period. Referring to FIG. 4, dog "BO", 0.10 microgram of GP 2-121-3per kilogram per minute was administered over a 10 minute period.

[3] = Protein binding of arbutamine to albumin in IPPSF perfusate; type: in vitro ADME; conditions: bovine, IPPSF perfusate media
elevated heart rate [4] = experiment: In vivo dog experiments: heart rate offset after iontophoretic ESA drug with pretreatment (Example A); parameters: species or system labrador dogs; conditions: for Offset Slope Component (0-5) min: 0-5 min after heart rate begins to decline; for Offset Slope Component (5-10) min: 5-10 min after decline begins; for Offset Slope Component (10-30) min: 10-30 min after decline begins; for Change in Heart Rate (peak minus baseline) / Peak Heart Rate: Table II; for Total time (startup) thru offset plateau: in words: Table IV; for Onset Slope: baseline at onset time to peak heart rate; for Decline in heart rate after ESA drug without pretreatment: control runs, hydrochloride; for Offset time: drug delivery stopped until within 20 bpm of baseline; for Offset Slope: drug shut-off to 20 bpm above baseline; for Delay: drug shut-off to start of heart rate decline; for Onset time: start of delivery to start of increase in heart rate; for Time Start Decline: time when elevated heart rate began to decline

Cl.Oc1ccc(CCCCNCC(O)c2ccc(O)c(O)c2)cc1 (stereo not drawn) [Arbutamine, 1-(3,4-dihydroxy-phenyl)-2-(4-(4-hydroxyphenyl)butylamino)ethanol hydrochloride]
experimental half-life (elevated heart rate [1]): 31 min | heart rate following TDI arbutamine without pretreatment (elevated heart rate [1]; FIGS. 3 and 4): prolonged elevation of heart rate | CHANGE IN HEART RATE, Mean (elevated heart rate [1]; Table VII, mean of runs): 74.68 BPM | DELAY TIME, Mean (elevated heart rate [1]; Table VII, mean of runs): 7.10 min | HALF-LIFE, Mean (elevated heart rate [1]; Table VII, mean of runs): 30.91 min | TIME TO REACH 10% DECLINE IN HEART RATE, Mean (elevated heart rate [1]; Table VII, mean of runs): 10.19 min | TIME TO REACH 20% DECLINE IN HEART RATE, Mean (elevated heart rate [1]; Table VII, mean of runs): 15.98 min | TIME TO REACH 30% DECLINE IN HEART RATE, Mean (elevated heart rate [1]; Table VII, mean of runs): 21.96 min | TIME TO REACH 40% DECLINE IN HEART RATE, Mean (elevated heart rate [1]; Table VII, mean of runs): 27.72 min | TIME TO REACH 50% DECLINE IN HEART RATE, Mean (elevated heart rate [1]; Table VII, mean of runs): 31.37 min | CHANGE IN HEART RATE (elevated heart rate [1]; Table VII, listed as Control): 52.17 BPM and 123.25 BPM and 60.00 BPM and 88.00 BPM and 87.00 BPM and 63.00 BPM and 78.80 BPM and 54.05 BPM and 88.07 BPM and 94.17 BPM and 54.44 BPM and 58.44 BPM and 77.47 BPM and 82.88 BPM and 77.08 BPM | DELAY TIME (elevated heart rate [1]; Table VII, listed as Control): 1.57 min and 1.00 min and 60.00 min and 5.50 min and 7.00 min and 5.10 min and 3.66 min and 2.28 min and 0.00 min and 1.67 min and 3.10 min and 9.20 min and 8.54 min and 1.99 min and 1.44 min | TIME TO REACH 10% DECLINE IN HEART RATE (elevated heart rate [1]; Table VII, listed as Control): 3.20 min and 6.24 min and 60.00 min and 7.07 min and 9.35 min and 8.80 min and 5.53 min and 4.53 min and 2.28 min and 9.66 min and 7.04 min and 10.79 min and 9.50 min and 4.00 min and 4.04 min | TIME TO REACH 20% DECLINE IN HEART RATE (elevated heart rate [1]; Table VII, listed as Control): 4.83 min and 9.16 min and 60.00 min and 98.65 min and 11.70 min and 7.41 min and 6.79 min and 4.55 min and 19.65 min and 16.54 min and 23.38 min and 10.47 min and 5.04 min and 6.82 min | TIME TO REACH 30% DECLINE IN HEART RATE (elevated heart rate [1]; Table VII, listed as Control): 6.46 min and 12.67 min and 60.00 min and 10.21 min and 14.16 min and 9.91 min and 9.23 min and 10.58 min and 29.56 min and 23.02 min and 13.98 min and 11.43 min and 8.54 min and 11.63 min | TIME TO REACH 40% DECLINE IN HEART RATE (elevated heart rate [1]; Table VII, listed as Control): 19.07 min and 17.19 min and 60.00 min and 16.92 min and 18.71 min and 13.84 min and 11.73 min and 22.82 min and 29.50 min and 16.23 min and 12.39 min and 11.49 min and 13.58 min | TIME TO REACH 50% DECLINE IN HEART RATE (elevated heart rate [1]; Table VII, listed as Control): 22.93 min and 21.70 min and 60.00 min and 24.25 min and 24.54 min and 25.97 min and 16.68 min and 30.00 min and 33.10 min and 18.58 min and 113.35 min and 15.32 min and 15.52 min | CHANGE IN HEART RATE (elevated heart rate [1]; Table VII, listed as control): 56.00 BPM | DELAY TIME (elevated heart rate [1]; Table VII, listed as control): 1.50 min | TIME TO REACH 10% DECLINE IN HEART RATE (elevated heart rate [1]; Table VII, listed as control): 11.00 min | TIME TO REACH 20% DECLINE IN HEART RATE (elevated heart rate [1]; Table VII, listed as control): 60.00 min | TIME TO REACH 30% DECLINE IN HEART RATE (elevated heart rate [1]; Table VII, listed as control): 60.00 min | TIME TO REACH 40% DECLINE IN HEART RATE (elevated heart rate [1]; Table VII, listed as control): 60.00 min | TIME TO REACH 50% DECLINE IN HEART RATE (elevated heart rate [1]; Table VII, listed as control): 60.00 min | HALF-LIFE (elevated heart rate [1]; Table VII, listed as Control): 12.53 min and 60.00 min and 20.60 min and 13.72 min and 25.09 min and 52.48 min and 2.42 min and 12.81 min and 9.60 min | HALF-LIFE (elevated heart rate [1]; Table VII, listed as control): 60.00 min | HALF-LIFE [2]: ~7 min | fraction unbound [3]: 0.36 | Offset Slope Component (0-5) min (elevated heart rate [4]; listed as 1, hydrochloride): -0.40 beats per minute per minute | Offset Slope Component (0-5) min (elevated heart rate [4]; listed as 2, hydrochloride): -3.70 beats per minute per minute | Offset Slope Component (5-10) min (elevated heart rate [4]; listed as 1, hydrochloride): -0.80 beats per minute per minute | Offset Slope Component (5-10) min (elevated heart rate [4]; listed as 2, hydrochloride): 1.70 beats per minute per minute | Offset Slope Component (10-30) min (elevated heart rate [4]; listed as 1, hydrochloride): -0.02 beats per minute per minute | Offset Slope Component (10-30) min (elevated heart rate [4]; listed as 2, hydrochloride): -0.50 beats per minute per minute | Change in Heart Rate (peak minus baseline) (elevated heart rate [4]; listed as 1, hydrochloride): 56 bpm | Peak Heart Rate (elevated heart rate [4]; listed as 1, hydrochloride): 123 bpm | Change in Heart Rate (peak minus baseline) (elevated heart rate [4]; listed as 2, hydrochloride): 87 bpm | Peak Heart Rate (elevated heart rate [4]; listed as 2, hydrochloride): 160 bpm | Total time (startup) thru offset plateau: in words (elevated heart rate [4]; listed as 1, hydrochloride): Never reached to w/in 20 bpm of baseline | Total time (startup) thru offset plateau: in words (elevated heart rate [4]; listed as 2, hydrochloride): Never reached to w/in 20 bpm pf baseline | Onset Slope (elevated heart rate [4]; listed as 1, hydrochloride): 6.80 beats per minute per minute | Onset Slope (elevated heart rate [4]; listed as 2, hydrochloride): 17.60 beats per minute per minute | Decline in heart rate after ESA drug without pretreatment (elevated heart rate [4]): essentially no reduction in heart rate | Decline in heart rate after ESA drug without pretreatment (elevated heart rate [4]; listed as ESA™ drug): no decline in heart rate during the first hour | Offset time (elevated heart rate [4]; listed as 1, hydrochloride): 29.00 min | Offset time (elevated heart rate [4]; listed as 2, hydrochloride): 39.00 min | Offset Slope (elevated heart rate [4]; listed as 1, hydrochloride): -0.30 beats per minute per minute | Offset Slope (elevated heart rate [4]; listed as 2, hydrochloride): -0.25 beats per minute per minute | Delay (elevated heart rate [4]; listed as 1, hydrochloride): 1.50 min | Delay (elevated heart rate [4]; listed as 2, hydrochloride): 7.00 min | Onset time (elevated heart rate [4]; listed as 1, hydrochloride): 9.00 min | Onset time (elevated heart rate [4]; listed as 2, hydrochloride): 5.00 min | Time Start Decline (elevated heart rate [4]; listed as 1, hydrochloride): 14.00 min | Time Start Decline (elevated heart rate [4]; listed as 2, hydrochloride): 12.50 min
